Data taken from PubChem BioAssay (NCI).
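These data come from cells grown in 96-well plates and exposed to compound for 48 hours at five concentrations. Abbreviation: GI50, concentration required for 50% inhibition of growth. Definition used: TGI = concentration required for complete inhibition of growth.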

Columns and labels:
Experiment in all cases: NCI tumour cell line growth inhibition, 48 h
M14 melanoma = tested on: M14 melanoma
TK-10 renal = tested on: TK-10 renal
SK-MEL-28 melanoma = tested on: SK-MEL-28 melanoma
SNB-75 CNS = tested on: SNB-75 CNS
MDA-MB-435 = tested on: MDA-MB-435
DU-145 prostate = tested on: DU-145 prostate
CCRF-CEM leukemia = tested on: CCRF-CEM leukemia
MOLT-4 leukemia = tested on: MOLT-4 leukemia
HL-60(TB) leukemia = tested on: HL-60(TB) leukemia
U251 CNS = tested on: U251 CNS

SMILES	GI50 (M14 melanoma) [µM]	TGI (M14 melanoma) [µM]	GI50 (TK-10 renal) [µM]	TGI (TK-10 renal) [µM]	GI50 (SK-MEL-28 melanoma) [µM]	TGI (SK-MEL-28 melanoma) [µM]	GI50 (SNB-75 CNS) [µM]	TGI (SNB-75 CNS) [µM]	GI50 (MDA-MB-435) [µM]	TGI (MDA-MB-435) [µM]	GI50 (DU-145 prostate) [µM]	TGI (DU-145 prostate) [µM]	TGI (CCRF-CEM leukemia) [µM]	TGI (MOLT-4 leukemia) [µM]	TGI (HL-60(TB) leukemia) [µM]	TGI (U251 CNS) [µM]	GI50 (CCRF-CEM leukemia) [µM]	GI50 (MOLT-4 leukemia) [µM]	GI50 (HL-60(TB) leukemia) [µM]	GI50 (U251 CNS) [µM]
COc1ccc(-c2ccc(-c3ccc(C(=N)N)nc3)s2)cc1	1.8	3.35	1.89	3.54	1.75	3.27	1.55	2.88	1.73	3.11	1.77	3.17	–	–	–	–	–	–	–	–
O=C(NO)c1ccc([N+](=O)[O-])cc1	–	> 100	–	> 100	–	> 100	–	93.8	–	–	–	–	> 100	> 100	50.9	> 100	–	–	–	–
N#CC(C#N)=CN1CCN(C(=O)c2ccco2)C1=S	–	–	4.62	32.7	12.5	> 100	40.6	> 100	5.28	40	5.46	> 100	> 100	> 100	58.1	> 100	79.7	5.22	19.8	6.54
O=C(O)C(=C\c1ccc2c(c1)OCO2)/C(=C/c1ccc2c(c1)OCO2)C(=O)O	–	> 100	–	> 100	–	> 100	–	> 100	–	> 100	–	> 100	> 100	> 100	> 100	> 100	–	–	–	–
Cc1c(C#N)c2nnn(C)c(=O)n2c1-c1ccccc1	–	> 100	–	> 100	–	> 100	–	> 100	–	> 100	–	–	> 100	–	> 100	> 100	–	–	–	–
